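Each compound was tested at five concentrations against cells in 96-well plates for 48 hours. GI50 marks 50% less growth.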 The source made the active and inactive calls. Rule as the data show it: active = GI50 up to about 1.1 µM and inactive = higher.
Key:
Test in all cases: NCI anticancer screen, dose series, 48 h
[1] = test system: NCI/ADR-RES
[2] = test system: EKVX
[3] = test system: M14
[4] = test system: OVCAR-5
[5] = test system: SK-MEL-5
[6] = test system: COLO 205
[7] = test system: SN12C
[8] = test system: HOP-92
[9] = test system: UACC-257
[10] = test system: SF-295
[11] = test system: SK-MEL-2
[12] = test system: SK-MEL-28
[13] = test system: MDA-MB-435
[14] = test system: MCF7
[15] = test system: K562
[16] = test system: DU-145
[17] = test system: NCI-H522
[18] = test system: HCT-15
[19] = test system: NCI-H226
[20] = test system: IGROV-1
[21] = test system: SNB-19
[22] = test system: SF-539
[23] = test system: RXF 393
[24] = test system: OVCAR-4
[25] = test system: MDA-MB-231
[26] = test system: SF-268
[27] = test system: MOLT-4
[28] = test system: OVCAR-3
[29] = test system: NCI-H23
[30] = test system: SNB-75
[31] = test system: UO-31
[32] = test system: LOX IMVI
[33] = test system: A498
[34] = test system: KM12
[35] = test system: ACHN
[36] = test system: HT-29
[37] = test system: 786-0
[38] = test system: PC-3
[39] = test system: SW-620
[40] = test system: OVCAR-8
[41] = test system: U-251
[42] = test system: HOP-62
[43] = test system: RPMI-8226
[44] = test system: Malme-3M
[45] = test system: HCC 2998
[46] = test system: A549
[47] = test system: CAKI-1
[48] = test system: Hs-578T
[49] = test system: SK-OV-3
[50] = test system: SR
[51] = test system: UACC-62
[52] = test system: NCI-H460
[53] = test system: BT-549
[54] = test system: HCT-116
[55] = test system: MDA-N
[56] = test system: T47D
[57] = test system: TK-10
[58] = test system: HL-60
[59] = test system: CCRF-CEM

O=C1c2ccccc2C(=O)c2c1oc(=O)c1ccccc21
GI50 [1]: 1.94 µM (inactive) | GI50 [2]: 5.77 µM (inactive) | GI50 [3]: 6.05 µM (inactive) | GI50 [4]: 6.03 µM (inactive) | GI50 [5]: 1.29 µM (inactive) | GI50 [6]: 9.71 µM (inactive) | GI50 [7]: 3.49 µM (inactive) | GI50 [8]: 5.16 µM (inactive) | GI50 [9]: 3.22 µM (inactive) | GI50 [10]: 3.83 µM (inactive) | GI50 [11]: 4.84 µM (inactive) | GI50 [12]: 6.5 µM (inactive) | GI50 [13]: 1.06 µM (active) | GI50 [14]: 2.21 µM (inactive) | GI50 [15]: 4 µM (inactive) | GI50 [16]: 5.46 µM (inactive) | GI50 [17]: 4.07 µM (inactive) | GI50 [18]: 3.26 µM | GI50 [19]: 8.93 µM (inactive) | GI50 [20]: 3.73 µM (inactive) | GI50 [21]: 8.75 µM (inactive) | GI50 [22]: 10.7 µM (inactive) | GI50 [23]: 4.48 µM (inactive) | GI50 [24]: 1.08 µM (active) | GI50 [25]: 3.74 µM (inactive) | GI50 [26]: 4.34 µM (inactive) | GI50 [27]: 3.79 µM (inactive) | GI50 [28]: 0.698 µM (active) | GI50 [29]: 4.23 µM (inactive) | GI50 [30]: 5.24 µM (inactive) | GI50 [31]: 5.22 µM (inactive) | GI50 [32]: 3.65 µM (inactive) | GI50 [33]: 9.82 µM (inactive) | GI50 [34]: 5.51 µM (inactive) | GI50 [35]: 4.59 µM (inactive) | GI50 [36]: 1.4 µM (inactive) | GI50 [37]: 5.35 µM (inactive) | GI50 [38]: 5.37 µM (inactive) | GI50 [39]: 2.08 µM (inactive) | GI50 [40]: 2 µM (inactive) | GI50 [41]: 2.96 µM (inactive) | GI50 [42]: 8.13 µM (inactive) | GI50 [43]: 3.63 µM (inactive) | GI50 [44]: 2.63 µM (inactive) | GI50 [45]: 3.21 µM (inactive) | GI50 [46]: 7.46 µM (inactive) | GI50 [47]: 6.21 µM (inactive) | GI50 [48]: 6.43 µM (inactive) | GI50 [49]: 9.25 µM (inactive) | GI50 [50]: 3.75 µM (inactive) | GI50 [51]: 4 µM (inactive) | GI50 [52]: 4.38 µM (inactive) | GI50 [53]: 4.51 µM (inactive) | GI50 [54]: 1.03 µM (active) | GI50 [55]: 2.2 µM (inactive) | GI50 [56]: 5.47 µM (inactive) | GI50 [57]: 8.89 µM (inactive) | GI50 [58]: 0.664 µM (active) | GI50 [59]: 1.93 µM (inactive)

O=C1NC(c2ccccc2Cl)Nc2ccccc21 (stereo not drawn)
GI50 [1]: 5.61 µM (inactive) | GI50 [2]: 27.7 µM (inactive) | GI50 [3]: 10.5 µM (inactive) | GI50 [4]: > 100 µM (inactive) | GI50 [5]: 5.57 µM (inactive) | GI50 [6]: 8.49 µM (inactive) | GI50 [7]: 23.3 µM (inactive) | GI50 [8]: 44.4 µM (inactive) | GI50 [9]: > 100 µM (inactive) | GI50 [10]: 13.9 µM (inactive) | GI50 [11]: 6.7 µM (inactive) | GI50 [12]: 24.1 µM (inactive) | GI50 [13]: 1.65 µM (inactive) | GI50 [14]: > 65.3 µM (inactive) | GI50 [15]: 3.77 µM (inactive) | GI50 [16]: 30.8 µM (inactive) | GI50 [17]: 12.3 µM (inactive) | GI50 [18]: 3.9 µM | GI50 [19]: 41.8 µM (inactive) | GI50 [20]: 22.5 µM (inactive) | GI50 [21]: 15.1 µM (inactive) | GI50 [22]: 7.08 µM (inactive) | GI50 [23]: 15.3 µM (inactive) | GI50 [24]: 27.5 µM (inactive) | GI50 [25]: 33.2 µM (inactive) | GI50 [26]: 59.7 µM (inactive) | GI50 [27]: 8.77 µM (inactive) | GI50 [28]: 7.38 µM (inactive) | GI50 [29]: 34.2 µM (inactive) | GI50 [30]: 13.8 µM (inactive) | GI50 [31]: 30.7 µM (inactive) | GI50 [32]: 12.5 µM (inactive) | GI50 [33]: 30.8 µM (inactive) | GI50 [34]: 3.76 µM (inactive) | GI50 [35]: 29.5 µM (inactive) | GI50 [36]: 6.67 µM (inactive) | GI50 [37]: 28.4 µM (inactive) | GI50 [38]: 21.4 µM (inactive) | GI50 [39]: 3.09 µM (inactive) | GI50 [40]: 38.6 µM (inactive) | GI50 [41]: 10.4 µM (inactive) | GI50 [42]: 35.4 µM (inactive) | GI50 [43]: 7.73 µM (inactive) | GI50 [44]: 12.3 µM (inactive) | GI50 [45]: 11.3 µM (inactive) | GI50 [46]: 32.5 µM (inactive) | GI50 [47]: 5.71 µM (inactive) | GI50 [48]: 9.53 µM (inactive) | GI50 [49]: 31 µM (inactive) | GI50 [50]: 4.07 µM (inactive) | GI50 [51]: 7.14 µM (inactive) | GI50 [52]: 13.9 µM (inactive) | GI50 [53]: 28.4 µM (inactive) | GI50 [54]: 7.24 µM (inactive) | GI50 [55]: 1.47 µM (inactive) | GI50 [56]: 48.5 µM (inactive) | GI50 [57]: > 53.1 µM (inactive) | GI50 [58]: 2.91 µM (inactive) | GI50 [59]: 11.4 µM (inactive)

Reference: ChEMBL document CHEMBL1201862, “PubChem BioAssay data set” (2004)
